Assay results from patent publication US11680060B2, “Bicycloheptane pyrrolidine orexin receptor agonists” (Merck Sharp & Dohme LLC, priority 2020, dated 2023).
Where two headings read alike, the source gives them in different places.

Biological target: human OX2R (Homo sapiens (Human), UniProt O43614)
Assay: IPOne (IP-1) assay in CHO cells expressing human OX2R
Type: cell-based
Settings: for Emax: CHO; for IC50: CHO cells expressing human OX2R, IP-One detection, 2 hours incubation, EC50 = inflection point of four parameter logistic fit, read-out: hOX2R_IP_IC50
How it was run: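 CHO cells stably expressing human OX2R were stimulated with compound (10-point ½-log dilutions) for 2 h at 37 °C. IP-1 accumulation was read by HTRF (IP-One, 665/620 nm). EC50 from a four-parameter fit; % effect relative to 1 μM reference agonist control.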

[1] = percentage of mean max effect of a reference compound at 1 uM (100% activity by comparison to Orexin A), human OX2R, read-out: Emax (%)

Chain of human OX2R (O43614 whole entry): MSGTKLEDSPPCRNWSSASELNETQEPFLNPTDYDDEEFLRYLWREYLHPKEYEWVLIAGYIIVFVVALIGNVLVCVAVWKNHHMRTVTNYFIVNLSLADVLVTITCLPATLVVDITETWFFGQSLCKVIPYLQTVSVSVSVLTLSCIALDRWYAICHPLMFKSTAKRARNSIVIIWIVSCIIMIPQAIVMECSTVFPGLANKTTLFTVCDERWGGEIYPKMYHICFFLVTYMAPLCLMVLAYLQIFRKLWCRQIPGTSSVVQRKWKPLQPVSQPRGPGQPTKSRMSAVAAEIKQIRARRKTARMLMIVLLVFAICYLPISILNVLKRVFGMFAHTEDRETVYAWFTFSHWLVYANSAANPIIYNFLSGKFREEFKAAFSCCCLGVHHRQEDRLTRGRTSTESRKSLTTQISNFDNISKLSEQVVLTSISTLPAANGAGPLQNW

| Emax [1] [%] | IC50 [nM] | Structure (SMILES) | Emax [%] |
| --- | --- | --- | --- |
| 99 | – | COC(=O)N1[C@H](C)C[C@H](NS(=O)(=O)N(C)C)[C@@H]1COC1CCC2(c3ccccn3)CC2C1 (stereo partly drawn) [Example 9, methyl (2R,3S,5R)-3-((N,N-dimethylsulfamoyl)amino)-5-methyl-2-(((6-(pyridin-2-yl)bicyclo[4.1.0]heptan-3-yl)oxy)methyl)pyrrolidine-1-carboxylate] | – |
| 99.6 | 20.6 | COC(=O)N1[C@H](C)C[C@H](NS(C)(=O)=O)[C@@H]1COC1CCC2(c3ccccc3)CC2C1 (single isomer, unassigned) [Example 1] | – |
| 103 | – | COC(=O)N1[C@H](C)C[C@H](NS(=O)(=O)C(F)(F)F)[C@@H]1CO[C@@H]1CC[C@]2(c3ncc(F)cn3)C[C@@H]2C1 [Example 44, methyl (2R,3S,5R)-2-((((1R,3R,6S)-6-(5-fluoropyrimidin-2-yl)bicyclo[4.1.0]heptan-3-yl)oxy)methyl)-5-methyl-3-((trifluoromethyl)sulfonamido)pyrrolidine-1-carboxylate] | – |
| 101 | – | COC(=O)N1[C@@H]2CCC[C@@H]2[C@H](NS(=O)(=O)CF)[C@@H]1COC1CCC2(c3ncc(F)cn3)CC2C1 (stereo partly drawn) [Example 130, methyl (2R,3S,3aS,6aR)-3-((fluoromethyl)sulfonamido)-2-(((6-(5-fluoropyrimidin-2-yl)bicyclo[4.1.0]heptan-3-yl)oxy)methyl)hexahydrocyclopenta[b]pyrrole-1(2H)-carboxylate] | – |
| 104 | – | C[C@@H]1C[C@H](NS(C)(=O)=O)[C@H](CO[C@H]2CC[C@@]3(c4ncc(F)cn4)C[C@H]3C2)N1C(=O)OCC1CC1(F)F (stereo partly drawn) [Example 59, (2,2-difluorocyclopropyl)methyl (2R,3S,5R)-2-((((1S,3S,6R)-6-(5-fluoropyrimidin-2-yl)bicyclo[4.1.0]heptan-3-yl)oxy)methyl)-5-methyl-3-(methylsulfonamido)pyrrolidine-1-carboxylate] | – |
| 101 | 4.4 | CC(C)OC(=O)N1[C@H](C)C[C@H](NS(C)(=O)=O)[C@@H]1CO[C@H]1CC[C@@]2(c3ncc(Cl)cn3)C[C@H]2C1 (single isomer, unassigned) [Example 151] | – |
| 103 | 6.5 | CC(C)OC(=O)N1[C@H](C)C[C@H](NS(=O)(=O)CF)[C@@H]1CO[C@@H]1CC[C@]2(c3ncc(Cl)cn3)C[C@@H]2C1 (single isomer, unassigned) [Example 96] | – |
| 100 | 7.6 | COC(=O)N1[C@H](C)C[C@H](NS(=O)(=O)CF)[C@@H]1CO[C@H]1CC[C@@]2(c3ncc(F)c(OC)n3)C[C@H]2C1 [Example 83, methyl (2R,3S,5R)-2-((((1S,3S,6R)-6-(5-fluoro-4-methoxypyrimidin-2-yl)bicyclo[4.1.0]heptan-3-yl)oxy)methyl)-3-((fluoromethyl)sulfonamido)-5-methylpyrrolidine-1-carboxylate] | – |
| 102 | – | COC(=O)N1[C@H](C(F)F)C[C@H](NS(=O)(=O)C(C)C)[C@@H]1COC1CCC2(c3ncc(F)cn3)CC2C1 (stereo partly drawn) [Example 120, methyl (2R,3S,5S)-5-(difluoromethyl)-2-(((6-(5-fluoropyrimidin-2-yl)bicyclo[4.1.0]heptan-3-yl)oxy)methyl)-3-((1-methylethyl)sulfonamido)pyrrolidine-1-carboxylate] | – |
| 101 | – | COC(=O)N1[C@H](C)C[C@H](NS(C)(=O)=O)[C@@H]1COC1CCC2(c3ncc(F)c(OC)n3)CC2C1 (stereo partly drawn) [Example 76, methyl (2R,3S,5R)-2-(((6-(5-fluoro-4-methoxypyrimidin-2-yl)bicyclo[4.1.0]heptan-3-yl)oxy)methyl)-5-methyl-3-(methylsulfonamido)pyrrolidine-1-carboxylate] | – |

| Structure (SMILES) | Emax [1] [%] | IC50 [nM] | Emax [%] |
| --- | --- | --- | --- |
| COC(=O)N1[C@H](C)C[C@H](NS(C)(=O)=O)[C@@H]1COC1CCC2(c3ncc(Cl)c(OC)n3)CC2C1 (stereo partly drawn) [Example 70, methyl (2R,3S,5R)-2-(((6-(5-chloro-4-methoxypyrimidin-2-yl)bicyclo[4.1.0]heptan-3-yl)oxy)methyl)-5-methyl-3-(methylsulfonamido)pyrrolidine-1-carboxylate] | – | 33.5 | 101 |
